Data published in ChEMBL document CHEMBL1909046, “DrugMatrix in vitro pharmacology data”.

How the values were obtained:
[1] = biological target: T1, Receptor-type tyrosine-protein phosphatase C (Homo sapiens, UniProt P08575); design: species or system Escherichia coli;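 note: inhibition of CD45 enzyme activity measured using DiFMUP as substrate; in other assays of this panel Not Active means under 50% inhibition at 10 µM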
T1 sequence (P08575 whole entry): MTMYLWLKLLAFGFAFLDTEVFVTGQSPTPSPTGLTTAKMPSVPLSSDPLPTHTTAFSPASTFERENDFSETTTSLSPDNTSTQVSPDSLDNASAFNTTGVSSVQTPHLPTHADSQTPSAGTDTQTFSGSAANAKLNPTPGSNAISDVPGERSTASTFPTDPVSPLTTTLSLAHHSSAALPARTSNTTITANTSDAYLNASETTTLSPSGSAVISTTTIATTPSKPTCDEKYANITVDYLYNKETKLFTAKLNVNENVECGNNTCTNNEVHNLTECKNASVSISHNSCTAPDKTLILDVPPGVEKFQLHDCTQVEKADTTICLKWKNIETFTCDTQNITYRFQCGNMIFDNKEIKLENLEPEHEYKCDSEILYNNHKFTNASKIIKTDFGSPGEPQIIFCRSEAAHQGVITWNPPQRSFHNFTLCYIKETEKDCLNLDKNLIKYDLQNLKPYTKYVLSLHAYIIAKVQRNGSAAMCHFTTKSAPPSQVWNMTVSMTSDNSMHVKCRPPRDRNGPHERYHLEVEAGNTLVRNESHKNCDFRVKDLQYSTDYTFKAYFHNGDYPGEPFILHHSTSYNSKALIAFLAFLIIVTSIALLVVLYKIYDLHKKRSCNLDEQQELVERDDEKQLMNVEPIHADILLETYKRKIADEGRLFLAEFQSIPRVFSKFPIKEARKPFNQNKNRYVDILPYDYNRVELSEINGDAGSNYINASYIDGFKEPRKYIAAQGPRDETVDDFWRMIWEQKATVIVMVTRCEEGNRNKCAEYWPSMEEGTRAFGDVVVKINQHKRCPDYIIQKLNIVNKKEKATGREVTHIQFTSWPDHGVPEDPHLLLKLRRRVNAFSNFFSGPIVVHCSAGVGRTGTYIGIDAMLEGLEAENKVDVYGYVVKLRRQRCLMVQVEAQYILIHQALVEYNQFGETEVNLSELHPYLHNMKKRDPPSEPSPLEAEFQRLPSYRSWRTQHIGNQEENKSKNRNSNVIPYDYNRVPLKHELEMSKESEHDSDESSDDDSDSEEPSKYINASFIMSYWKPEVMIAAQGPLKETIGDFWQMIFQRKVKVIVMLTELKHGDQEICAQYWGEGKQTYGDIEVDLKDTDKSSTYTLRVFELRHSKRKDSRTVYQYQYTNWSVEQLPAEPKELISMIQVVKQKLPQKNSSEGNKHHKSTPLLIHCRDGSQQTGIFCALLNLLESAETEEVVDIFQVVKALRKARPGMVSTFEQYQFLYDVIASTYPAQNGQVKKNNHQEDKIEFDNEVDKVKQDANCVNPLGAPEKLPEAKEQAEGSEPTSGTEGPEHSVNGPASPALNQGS

[2] = biological target: T2, D(4) dopamine receptor (Homo sapiens, UniProt P21917); test: DRUGMATRIX: Dopamine D4.2 radioligand binding (ligand: [3H] Spiperone); type: cell membranes, CHO-K1, Membrane; conditions: cho-k1; Not Active = under 50% inhibition at 10 µM
T2 sequence (P21917 whole entry): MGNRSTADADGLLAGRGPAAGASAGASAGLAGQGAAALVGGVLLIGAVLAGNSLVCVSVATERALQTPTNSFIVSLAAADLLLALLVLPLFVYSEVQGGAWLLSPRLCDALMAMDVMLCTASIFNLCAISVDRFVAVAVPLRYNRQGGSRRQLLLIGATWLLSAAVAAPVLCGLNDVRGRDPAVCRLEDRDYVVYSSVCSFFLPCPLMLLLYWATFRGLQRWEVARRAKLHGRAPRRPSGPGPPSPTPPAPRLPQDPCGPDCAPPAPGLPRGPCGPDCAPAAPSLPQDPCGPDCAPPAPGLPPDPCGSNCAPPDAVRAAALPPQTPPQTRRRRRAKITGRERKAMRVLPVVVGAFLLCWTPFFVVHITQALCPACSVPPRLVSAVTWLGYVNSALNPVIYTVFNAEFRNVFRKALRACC

[3] = biological target: Sigma non-opioid intracellular receptor 1 (Homo sapiens, UniProt Q99720); test: DRUGMATRIX: Sigma1 radioligand binding (ligand: [3H] Haloperidol); type: cell membranes, Jurkat, Membrane; conditions: jurkat; Not Active = under 50% inhibition at 10 µM
[4] = biological target: Protein kinase C alpha type (Homo sapiens, UniProt P17252); type: cell-based; conditions: sf9;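 note: inhibition of PKCalpha kinase activity measured in an enzyme assay with histone as the phosphorylation substrate; in other assays of this panel Not Active means under 50% inhibition at 10 µM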
[5] = biological target: T3, Muscarinic acetylcholine receptor M5 (Homo sapiens, UniProt P08912); type: cell membranes, CHO-K1, Membrane; conditions: cho-k1; note: in other assays of this panel Not Active means under 50% inhibition at 10 µM
T3 sequence (P08912 whole entry): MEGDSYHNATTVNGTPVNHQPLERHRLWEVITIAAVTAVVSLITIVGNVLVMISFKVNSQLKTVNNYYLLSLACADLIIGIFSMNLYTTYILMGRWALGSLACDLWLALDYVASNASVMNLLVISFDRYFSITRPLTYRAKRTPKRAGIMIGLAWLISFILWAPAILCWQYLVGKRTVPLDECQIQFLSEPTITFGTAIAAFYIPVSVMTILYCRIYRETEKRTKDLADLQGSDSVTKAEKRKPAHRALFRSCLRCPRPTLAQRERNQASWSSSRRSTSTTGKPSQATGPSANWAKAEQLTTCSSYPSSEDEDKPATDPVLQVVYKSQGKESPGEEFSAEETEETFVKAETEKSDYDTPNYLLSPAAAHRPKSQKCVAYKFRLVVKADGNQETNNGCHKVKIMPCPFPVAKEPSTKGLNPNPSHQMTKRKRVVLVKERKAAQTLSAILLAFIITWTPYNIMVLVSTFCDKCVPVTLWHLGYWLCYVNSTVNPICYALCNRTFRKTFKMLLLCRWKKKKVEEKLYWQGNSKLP

Measured: IC50

Sequence of Sigma non-opioid intracellular receptor 1 (Q99720 whole entry): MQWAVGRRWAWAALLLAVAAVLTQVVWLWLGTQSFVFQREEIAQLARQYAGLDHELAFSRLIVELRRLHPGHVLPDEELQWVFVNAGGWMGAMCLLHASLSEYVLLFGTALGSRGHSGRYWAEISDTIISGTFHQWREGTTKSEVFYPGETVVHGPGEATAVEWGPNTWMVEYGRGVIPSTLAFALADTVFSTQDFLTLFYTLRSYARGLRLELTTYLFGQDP

CC(C)[C@@]1(NC(=O)[C@@H]2C[C@@H]3c4cccc5[nH]cc(c45)C[C@H]3N(C)C2)O[C@@]2(O)[C@@H]3CCCN3C(=O)[C@H](Cc3ccccc3)N2C1=O.CS(=O)(=O)O [DIHYDROERGOCRISTINE MESYLATE]
Not Active: [1] | [2] | [3] | [4] | [5]

CC(=O)O[C@@]12CO[C@@H]1C[C@H](O)[C@@]1(C)C(=O)[C@H](O)C3=C(C)[C@@H](OC(=O)[C@H](O)[C@@H](NC(=O)OC(C)(C)C)c4ccccc4)C[C@@](O)([C@@H](OC(=O)c4ccccc4)[C@H]21)C3(C)C.O.O.O [DOCETAXEL]
Not Active: [1] | [2] | [3] | [4] | [5]

COc1cc2nc(N3CCN(C(=O)C4COc5ccccc5O4)CC3)nc(N)c2cc1OC (stereo not given) [DOXAZOSIN]
Not Active: [1] | [2] | [3] | [4] | [5]

C[C@H]1c2cccc(O)c2C(=O)C2=C(O)[C@]3(O)C(=O)C(C(N)=O)=C(O)[C@@H](N(C)C)[C@@H]3[C@@H](O)[C@@H]21.O [DOXYCYCLINE]
Not Active: [1] | [2] | [3] | [4] | [5]

CC(C)[C@H]1C(=O)N2CCC[C@H]2[C@]2(O)O[C@](NC(=O)[C@@H]3C=C4c5cccc6[nH]cc(c56)C[C@H]4N(C)C3)(C(C)C)C(=O)N12 [ERGOCORNINE]
Not Active: [1] | [2] | [3] | [4] | [5]

C[C@]12CC[C@@H]3c4ccc(O)cc4CC[C@H]3[C@@H]1CCC2=O [ESTRONE]
Not Active: [1] | [2] | [3] | [4] | [5]

OC(Cn1cncn1)(Cn1cncn1)c1ccc(F)cc1F [FLUCONAZOLE]
Not Active: [1] | [2] | [3] | [4] | [5]

CC(C)C(=O)Nc1ccc([N+](=O)[O-])c(C(F)(F)F)c1 [FLUTAMIDE]
Not Active: [1] | [2] | [3] | [4] | [5]

N=C(N)NCCN1CCCCCCC1 [GUANETHIDINE]
Not Active: [1] | [2] | [3] | [4] | [5]

CC1(C)O[C@@H]2C[C@H]3[C@@H]4CCC5=CC(=O)CC[C@]5(C)[C@@]4(F)[C@@H](O)C[C@]3(C)[C@]2(C(=O)CCl)O1 [HALCINONIDE]
Not Active: [1] | [2] | [3] | [4] | [5]

O=c1[nH]c(=O)n([C@H]2C[C@H](O)[C@@H](CO)O2)cc1I [IDOXURIDINE]
Not Active: [1] | [2] | [3] | [4] | [5]

CC1Cc2ccccc2N1NC(=O)c1ccc(Cl)c(S(N)(=O)=O)c1 (stereo not given) [INDAPAMIDE]
Not Active: [1] | [2] | [3] | [4] | [5]

Nc1nc(N)nc(-c2cc(Cl)ccc2Cl)n1.O=C(O)/C=C\C(=O)O [IRSOGLADINE MALEATE]
Not Active: [1] | [2] | [3] | [4] | [5]

CCC(C)n1ncn(-c2ccc(N3CCN(c4ccc(OCC5COC(Cn6cncn6)(c6ccc(Cl)cc6Cl)O5)cc4)CC3)cc2)c1=O (stereo not given) [ITRACONAZOLE]
Not Active: [1] | [2] | [3] | [4] | [5]

CCCCN1CCCC[C@H]1C(=O)Nc1c(C)cccc1C [LEVOBUPIVACAINE]
Not Active: [1] | [2] | [3] | [4] | [5]

CCCCc1nc(Cl)c(CO)n1Cc1ccc(-c2ccccc2-c2nnn[nH]2)cc1 [LOSARTAN]
Not Active: [1] | [2] | [3] | [4] | [5]

Sc1ncnc2nc[nH]c12 [MERCAPTOPURINE ANHYDROUS]
Not Active: [1] | [2] | [3] | [4] | [5]

C[C@](N)(Cc1ccc(O)c(O)c1)C(=O)O [METHYLDOPA]
Not Active: [1] | [2] | [3] | [4] | [5]

C[C@]12CCC(=O)C=C1CC[C@@H]1[C@@H]2CC[C@@]2(C)[C@H]1CC[C@]2(C)O [METHYLTESTOSTERONE]
Not Active: [1] | [2] | [3] | [4] | [5]

Cc1ccccc1N1C(=O)c2cc(S(N)(=O)=O)c(Cl)cc2NC1C (stereo not given) [METOLAZONE]
Not Active: [1] | [2] | [3] | [4] | [5]

COCCc1ccc(OCC(O)CNC(C)C)cc1 (stereo not given) [METOPROLOL]
Not Active: [1] | [2] | [3] | [4] | [5]

CCn1cc(C(=O)O)c(=O)c2cc(F)c(N3CCNCC3)cc21 [NORFLOXACIN]
Not Active: [1] | [2] | [3] | [4] | [5]

NC1=NC(=O)C(c2ccccc2)O1 (stereo not given) [PEMOLINE]
Not Active: [1] | [2] | [3] | [4] | [5]

Nc1nc2c(ncn2CCC(CO)CO)c(=O)[nH]1 [PENCICLOVIR]
Not Active: [1] | [2] | [3] | [4] | [5]

C=C(C)C1(O)OC(=O)C=C1OC (stereo not given) [PENICILLIC ACID]
Not Active: [1] | [2] | [3] | [4] | [5]

CC1(C)S[C@@H]2[C@H](NC(=O)Cc3ccccc3)C(=O)N2[C@H]1C(=O)O [PENICILLIN G]
Not Active: [1] | [2] | [3] | [4] | [5]

CCCN1C[C@H](CSC)C[C@@H]2c3cccc4[nH]cc(c34)C[C@H]21 [PERGOLIDE]
Not Active: [1] | [2] | [3] | [4] | [5]
